Source: patent US10363251B2, “(+)-morphinans as antagonists of toll-like receptor 9 and therapeutic uses thereof” (Mallinckrodt LLC, priority 2009, dated 2019)
Entries after “also recorded” stand apart in the source; their conditions may differ. Like-named read-outs stand apart in the source and are kept apart here.

Experiments:
[1] = molecular target: T1, TLR9 (Homo sapiens, UniProt Q9NR96); assay: TLR9 screening of (+)-morphinan library, SEAP reporter in HEK293 cells expressing TLR9; type: cell-based; details: activator ODN2006; for OD 650 nm (mean ± sd): control (no activator) 0.14, activator 1.42 OD
T1 construct: expressed in transfected cells; host or cells: HEK293
T1 sequence (Q9NR96 26-1032): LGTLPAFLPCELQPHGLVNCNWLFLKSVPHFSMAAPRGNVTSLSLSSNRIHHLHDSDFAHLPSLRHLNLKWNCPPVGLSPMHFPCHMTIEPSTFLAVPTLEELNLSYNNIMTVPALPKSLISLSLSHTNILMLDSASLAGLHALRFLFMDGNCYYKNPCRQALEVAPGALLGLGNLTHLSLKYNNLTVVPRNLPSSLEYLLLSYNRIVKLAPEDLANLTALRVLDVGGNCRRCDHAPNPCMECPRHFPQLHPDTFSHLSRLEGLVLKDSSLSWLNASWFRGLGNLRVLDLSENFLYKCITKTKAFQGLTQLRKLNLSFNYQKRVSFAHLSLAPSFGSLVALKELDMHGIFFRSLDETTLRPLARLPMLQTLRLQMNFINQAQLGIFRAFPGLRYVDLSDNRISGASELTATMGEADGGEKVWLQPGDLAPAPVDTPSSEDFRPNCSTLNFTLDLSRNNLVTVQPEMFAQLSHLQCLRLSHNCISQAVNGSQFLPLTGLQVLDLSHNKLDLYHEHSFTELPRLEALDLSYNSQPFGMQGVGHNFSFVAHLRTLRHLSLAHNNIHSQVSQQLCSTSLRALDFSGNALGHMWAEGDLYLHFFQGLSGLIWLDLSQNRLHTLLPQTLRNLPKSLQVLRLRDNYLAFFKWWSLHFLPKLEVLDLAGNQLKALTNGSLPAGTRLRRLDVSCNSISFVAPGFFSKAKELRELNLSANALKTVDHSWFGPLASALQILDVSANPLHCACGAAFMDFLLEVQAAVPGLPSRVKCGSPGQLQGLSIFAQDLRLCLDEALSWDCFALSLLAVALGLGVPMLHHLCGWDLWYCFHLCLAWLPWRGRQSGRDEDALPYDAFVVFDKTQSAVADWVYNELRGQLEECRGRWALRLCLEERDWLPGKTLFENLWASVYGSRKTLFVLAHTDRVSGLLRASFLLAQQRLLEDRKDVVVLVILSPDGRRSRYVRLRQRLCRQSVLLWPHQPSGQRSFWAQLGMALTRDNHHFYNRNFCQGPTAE
Method in brief: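 HEK293 cells expressing TLR9 with an NF-κB-inducible SEAP reporter were preincubated with compound at 10 μM and 100 nM for 30 min at 37 °C, then stimulated with ODN2006. SEAP was read as OD 650 nm after 16-20 h, in triplicate.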

[2] = tested on: chronic constriction injury (CCI) neuropathic pain model; assay: Reversal of allodynia (von Frey) in CCI rats, 4 days of dosing, Example 4; type: in vivo, rat; details: for Animals sleepier/sedated on at least one post dosing occasion / Local observations (swelling, irritation): i.p.; for Reversal of allodynia (von Frey): i.p. once a day for 4 days from day 14, tested 3 hrs after dosing, ultra low to high dose; for Reversal of allodynia (von Frey) / Area under the curve (AUC) analysis of allodynia: vs saline; for Area under the curve (AUC) analysis of allodynia: i.p. once a day for 4 days
Procedure: Allodynia was induced in a group of (male, Sprague-Dawley) rats essentially as described above in Example 3. Prior to surgery, animals were tested to establish their baseline von Frey scores. Any animal with a Log absolute von Frey score lower than 4.65 on either leg was excluded from the study. CCI surgery was performed on the left sciatic nerve as detailed above. On days 4 and 14 post-surgery, the animals were tested using the von Frey test of mechanical allodynia to ensure that allodynia was established.
Beginning at about day 14 post-surgery, the animals were dosed once a day for 4 days. Compounds II-25, II-93, II-62, and III-2 were tested. All drugs were administered intraperitoneally (i.p.). Allodynia was tested prior to and again 3 hrs after each dosing. Drug administration and testing was done blindly. After the 4th day of dosing, the animals were sacrificed, cardiac perfusion was performed, and spinal cords were removed and stored for further analysis.
All data were analyzed using 2-way ANOVA's with Bonferroni's post hoc test compared to saline unless otherwise stated. Area under curve (AUC) was calculated using Graphpad Prism and comparisons were made using 1-way ANOVA with Dunnet's post hoc test.

[3] = tested on: APAP-induced liver toxicity; assay: Acetaminophen (APAP)-induced hepatotoxicity model; type: in vivo, mouse; details: APAP 500 mg/Kg ip, 12 hours post-APAP; for Protection from APAP-induced toxicity: test doses and timing per Table 6; for Liver histology scores (necrosis and hemorrhage): vs APAP alone
Procedure: For this, APAP-induced liver toxicity was induced in male C57BL/6 mice aged between 8-10 weeks by a single intraperitoneal (ip) injection of APAP in PBS at a dose of 500 mg/Kg (Imaeda et al. (2009) J. Clin. Invest. 119(2):305-314). The ability of (+)-morphinans to reduce liver toxicity was tested in the following groups:
The (+)-morphinan (or PBS) was either administered as a single subcutaneous (sc) or ip injection concurrent with the APAP injection or one hour prior to the APAP injection.
The mice were sacrificed 12 hours post-APAP treatment. Liver samples were stained with H&E and analyzed for signs of necrosis and hemorrhage. Histology scores were assigned using the standard rating scale. The levels of serum alanine transaminase (ALT) were also measured in each animal using a standard assay.

[4] = HEK293, read-out: % Inhibition (mean), 100 nM
[5] = HEK293, read-out: % Inhibition (mean), 10 μM
[6] = HEK293, 100 nM, read-out: % Inhibition (mean)
[7] = HEK293, 10 μM, read-out: % Inhibition (mean)

Compound: COc1ccc2c3c1O[C@@H]1[C@H](O)CC[C@@H]4[C@H](C2)N(CC2CC2)CC[C@]341 [II-25]
- OD 650 nm (mean ± sd) ([1]; 100 nM): 1.33 ± 0.07 OD
- OD 650 nm (mean ± sd) ([1]; 10 μM): 0.21 ± 0.06 OD
- inhibition at 0.1 µM [1, 4]: 6%
- inhibition at 10 µM [1, 5]: 85%
- Animals sleepier/sedated on at least one post dosing occasion ([2]; high dose): 5-6
- Reversal of allodynia (von Frey) [2]: significant overall effect on the reversal of allodynia bilaterally; also recorded: effective at reversing mechanical allodynia
- Area under the curve (AUC) analysis of allodynia [2]: significantly reversed allodynia

Compound: CN(C(=O)/C=C/c1ccoc1)[C@H]1CC[C@]2(O)[C@@H]3Cc4ccc(O)c5c4[C@]2(CCN3CC2CC2)[C@@H]1O5 [II-62]
- OD 650 nm (mean ± sd) ([1]; 100 nM): 1.34 ± 0.05 OD
- OD 650 nm (mean ± sd) ([1]; 10 μM): 0.18 ± 0.01 OD
- inhibition at 0.1 µM [1, 4]: 6%
- inhibition at 10 µM [1, 5]: 87%
- Time course analysis of allodynia, ipsilateral paw ([2]; Day 4 of dosing): slight reversal of allodynia
- Animals sleepier/sedated on at least one post dosing occasion ([2]; high dose): two
- Local observations (swelling, irritation) ([2]; high dose): appeared to irritate the rats when it was injected; also recorded: swelling around the site of injection
- Reversal of allodynia (von Frey) [2]: did not significantly reverse allodynia at any dose
- Area under the curve (AUC) analysis of allodynia [2]: no overall effect of any dose
- Animals sleepier/sedated on at least one post dosing occasion ([2]; low dose): one
- Animals sleepier/sedated on at least one post dosing occasion ([2]; medium dose): one

Compound: COC(=O)[C@@H](C)NC1CCC2C3Cc4ccc(OC)c5c4[C@]2(CCN3C)C1O5 (stereo partly shown) [II-92]
- OD 650 nm (mean ± sd) ([1]; 100 nM): 1.09 ± 0.03 OD
- OD 650 nm (mean ± sd) ([1]; 10 μM): 0.73 ± 0.06 OD
- inhibition at 0.1 µM [1, 4]: 23%
- inhibition at 10 µM [1, 5]: 48%

Compound: C=CCN1CC[C@@]23c4c5ccc(OC)c4OC2C(NCCC)CCC3C1C5 (stereo partly shown) [II-93]
- OD 650 nm (mean ± sd) ([1]; 100 nM): 0.12 ± 0.00 OD
- OD 650 nm (mean ± sd) ([1]; 10 μM): 0.11 ± 0.01 OD
- inhibition at 0.1 µM [1, 4]: 91%
- inhibition at 10 µM [1, 5]: 92%
- Animals sleepier/sedated on at least one post dosing occasion ([2]; high dose): 7
- Local observations (swelling, irritation) ([2]; high dose): swelling of the ipsilateral paw
- Reversal of allodynia (von Frey) [2]: significantly reversed allodynia in the ipsilateral paw after the high dose only; also recorded: effective at reversing mechanical allodynia
- Area under the curve (AUC) analysis of allodynia [2]: significant reversal of allodynia in the ipsilateral paw
- Animals sleepier/sedated on at least one post dosing occasion ([2]; low dose): one
- Animals sleepier/sedated on at least one post dosing occasion ([2]; medium dose): two
- Protection from APAP-induced toxicity [3]: None of compounds II-24, II-93, or III-2 provided any protection
- Liver histology scores (necrosis and hemorrhage) [3]: about the same as those only exposed to APAP

Compound: COC1=CCC2[C@@H]3Cc4ccc(OC)c5c4[C@]2(CCN3CC2CC2)[C@@H]1O5 (stereo partly shown) [II-95]
- % Inhibition (mean) ([1]; 100 nM, 0.1 µM): 22%
- OD 650 nm (mean ± sd) ([1]; 100 nM): 1.11 ± 0.04 OD
- OD 650 nm (mean ± sd) ([1]; 10 μM): 0.37 ± 0.03 OD
- inhibition at 10 µM [1, 5]: 74%

Compound: COC1=CCC2[C@@H]3Cc4ccc(OC)c5c4[C@]2(CCN3C)[C@@H]1O5 (stereo partly shown) [II-96]
- OD 650 nm (mean ± sd) ([1]; 100 nM): 1.15 ± 0.06 OD
- OD 650 nm (mean ± sd) ([1]; 10 μM): 0.42 ± 0.02 OD
- inhibition at 0.1 µM [1, 4]: 19%
- inhibition at 10 µM [1, 5]: 71%

Compound: COc1ccc2c3c1O[C@@H]1C4(CCC5[C@H](C2)N(CC2CC2)CC[C@]351)OCCO4 (stereo partly shown) [II-97]
- OD 650 nm (mean ± sd) ([1]; 100 nM): 1.22 ± 0.02 OD
- OD 650 nm (mean ± sd) ([1]; 10 μM): 1.42 ± 0.07 OD
- inhibition at 0.1 µM [1, 4]: 14%
- inhibition at 10 µM [1, 5]: 0%

Compound: COc1ccc2c3c1O[C@@H]1C(OC)(OC)CCC4[C@H](C2)N(CC2CC2)CC[C@]341 (stereo partly shown) [II-99]
- OD 650 nm (mean ± sd) ([1]; 100 nM): 1.32 ± 0.00 OD
- OD 650 nm (mean ± sd) ([1]; 10 μM): 0.14 ± 0.01 OD
- inhibition at 0.1 µM [1, 4]: 7%
- inhibition at 10 µM [1, 5]: 90%

Compound: COC1=CCC2[C@@H]3Cc4ccc(OC)c5c4[C@]2(CCN3C(=O)Oc2ccccc2)[C@@H]1O5 (stereo partly shown) [II-100]
- OD 650 nm (mean ± sd) ([1]; 100 nM): 1.16 ± 0.02 OD
- OD 650 nm (mean ± sd) ([1]; 10 μM): 1.45 ± 0.11 OD
- inhibition at 0.1 µM [1, 4]: 18%
- inhibition at 10 µM [1, 5]: -2%

Compound: COc1ccc2c3c1O[C@@H]1C(OC)(OC)C(Br)CC4[C@H](C2)N(C)CC[C@]341 (stereo partly shown) [II-101]
- OD 650 nm (mean ± sd) ([1]; 100 nM): 1.35 ± 0.06 OD
- OD 650 nm (mean ± sd) ([1]; 10 μM): 0.94 ± 0.02 OD
- inhibition at 0.1 µM [1, 4]: 5%
- inhibition at 10 µM [1, 5]: 34%

Compound: COc1ccc2c(c1)CCN[C@@H]2Cc1ccc(OC)c(O)c1 [III-1]
- OD 650 nm (mean ± sd) ([1]; 100 nM): 1.34 ± 0.06 OD
- OD 650 nm (mean ± sd) ([1]; 10 μM): 0.67 ± 0.01 OD
- inhibition at 0.1 µM [1, 6]: 6%
- inhibition at 10 µM [1, 7]: 53%

Compound: C=CCN1CCc2cc(OC)ccc2[C@H]1Cc1ccc(OC)c(O)c1 [III-2]
- OD 650 nm (mean ± sd) ([1]; 100 nM): 1.13 ± 0.02 OD
- OD 650 nm (mean ± sd) ([1]; 10 μM): 0.42 ± 0.04 OD
- inhibition at 0.1 µM [1, 6]: 21%
- inhibition at 10 µM [1, 7]: 71%
- Reversal of allodynia (von Frey) [2]: no effect on allodynia at any dose
- Animals sleepier/sedated on at least one post dosing occasion ([2]; low dose): Two
- Protection from APAP-induced toxicity [3]: None of compounds II-24, II-93, or III-2 provided any protection
- Liver histology scores (necrosis and hemorrhage) [3]: about the same as those only exposed to APAP

Compound: COc1ccc2c(c1)CCN(CC1CC1)[C@@H]2Cc1ccc(OC)c(O)c1 [III-3]
- OD 650 nm (mean ± sd) ([1]; 100 nM): 1.03 ± 0.03 OD
- OD 650 nm (mean ± sd) ([1]; 10 μM): 0.13 ± 0.01 OD
- inhibition at 0.1 µM [1, 6]: 27%
- inhibition at 10 µM [1, 7]: 91%

Compound: COc1ccc2c(c1)CCN(CC1CCC1)[C@@H]2Cc1ccc(OC)c(O)c1 [III-4]
- OD 650 nm (mean ± sd) ([1]; 100 nM): 1.04 ± 0.04 OD
- OD 650 nm (mean ± sd) ([1]; 10 μM): 0.11 ± 0.01 OD
- inhibition at 0.1 µM [1, 6]: 27%
- inhibition at 10 µM [1, 7]: 92%

Compound: COc1ccc2c(c1)CCN(C)[C@@H]2Cc1ccc(OC)c(O)c1 [III-5]
- OD 650 nm (mean ± sd) ([1]; 100 nM): 1.11 ± 0.02 OD
- OD 650 nm (mean ± sd) ([1]; 10 μM): 0.29 ± 0.01 OD
- inhibition at 0.1 µM [1, 6]: 22%
- inhibition at 10 µM [1, 7]: 80%
